Assay: xn = mol fraction of the nth substance listed
Details: 101 kPa, Liquid; for mass density: Vibrating tube method; for viscosity: Vibrating wire viscometry; for speed of sound: ultrasonic interferometer

CCN(CC)CC.O=P(O)(O)O [triethylammonium dihydrogen phosphate] + CN1CCCC1=O
Details	mass density [kg/m3]	speed of sound [m/s]	viscosity [mPa·s]
298.15 K, x1 = 0.0115	1032	1574	1.95
298.15 K, x1 = 0.0257	1036.63	1580	2.23
298.15 K, x1 = 0.0702	1047.93	1602	2.5
298.15 K, x1 = 0.0995	1054.84	1624	3.22
298.15 K, x1 = 0.1498	1065.79	1657	4.42
298.15 K, x1 = 0.2409	1081.01	1711	6.12
298.15 K, x1 = 0.282	1086.8	1735	6.52
298.15 K, x1 = 0.3482	1094.7	1763	7.12
298.15 K, x1 = 0.4709	1105.46	1806	10.71
298.15 K, x1 = 0.6161	1114.03	1831	17.12
298.15 K, x1 = 0.6975	1117.42	1836	22.9
298.15 K, x1 = 0.7906	1120.24	1829	31.5
298.15 K, x1 = 0.9135	1123.51	1817	47.02
298.15 K, x1 = 0.9579	1124.64	1809	53.91
298.15 K, x1 = 1	1125.7	1794	64.31
303.15 K, x1 = 0.0115	1027.87	1558	0.97
303.15 K, x1 = 0.0257	1032.6	1570	1.24
303.15 K, x1 = 0.0702	1044.24	1595	2.49
303.15 K, x1 = 0.0995	1051.16	1620	3.17
303.15 K, x1 = 0.1498	1061.32	1656	3.8
303.15 K, x1 = 0.2409	1076.95	1706	5.27
303.15 K, x1 = 0.282	1083.03	1719	5.55
303.15 K, x1 = 0.3482	1090.71	1753	6.53
303.15 K, x1 = 0.4709	1101.42	1796	8.32
303.15 K, x1 = 0.6161	1110.51	1820	13.52
303.15 K, x1 = 0.6975	1114.2	1826	18.9
303.15 K, x1 = 0.7906	1117.34	1819	26.91
303.15 K, x1 = 0.9135	1121.34	1804	41.33
303.15 K, x1 = 0.9579	1123.03	1791	49.31
303.15 K, x1 = 1	1124.68	1769	57.1
308.15 K, x1 = 0.0115	1023.39	1539	1.07
308.15 K, x1 = 0.0257	1028.04	1544	1.05
308.15 K, x1 = 0.0702	1039.93	1577	1.97
308.15 K, x1 = 0.0995	1046.49	1600	2.57
308.15 K, x1 = 0.1498	1057.16	1636	2.91
308.15 K, x1 = 0.2409	1072.56	1689	4.13
308.15 K, x1 = 0.282	1078.25	1711	4.19
308.15 K, x1 = 0.3482	1086.21	1744	5.05
308.15 K, x1 = 0.4709	1097.31	1789	6.42
308.15 K, x1 = 0.6161	1106.86	1816	11
308.15 K, x1 = 0.6975	1111.06	1819	15.83
308.15 K, x1 = 0.7906	1114.71	1813	23.02
308.15 K, x1 = 0.9135	1119.77	1788	35.92
308.15 K, x1 = 0.9579	1121.61	1769	42.41
308.15 K, x1 = 1	1123.71	1757	49.53
313.15 K, x1 = 0.0115	1018.9	1540	1.61
313.15 K, x1 = 0.0257	1023.44	1552	1.37
313.15 K, x1 = 0.0702	1034.5	1576	1.48
313.15 K, x1 = 0.0995	1041.32	1594	1.81
313.15 K, x1 = 0.1498	1052.28	1630	1.88
313.15 K, x1 = 0.2409	1067.96	1685	1.95
313.15 K, x1 = 0.282	1074.06	1708	2.5
313.15 K, x1 = 0.3482	1081.89	1737	2.99
313.15 K, x1 = 0.4709	1093.3	1785	4.42
313.15 K, x1 = 0.6161	1103.08	1808	8.18
313.15 K, x1 = 0.6975	1107.89	1810	11.52
313.15 K, x1 = 0.7906	1111.88	1804	17.2
313.15 K, x1 = 0.9135	1117.73	1772	28.3
313.15 K, x1 = 0.9579	1119.92	1758	33.32
313.15 K, x1 = 1	1122.37	1730	38.31
